From patent publication US20240124434A1, “ATF6 INHIBITORS AND USES THEREOF” (Altos Labs, Inc., priority 2018, published 2024)
Converted amounts (≈) assume the structure as drawn. Where two headings read alike, the source gives them in different places.

Columns and labels:
[1] = biological target: CYP2B6 (Homo sapiens (Human), UniProt P20813); test: CYP inhibition in human liver microsomes; conditions: read-out: CYP-2B6; human liver microsomes; probe substrate bupropion
Protocol: (§1) CYP inhibition by test compounds in human liver microsomes (HLM) for seven major CYP450 isoforms CYP1A2, CYP2C9, CYP2D6, CYP2B6, CYP2C8, CYP2C19 and CYP3A4 were assessed. […] 50 μM phenacetin, 2 μM midazolam, 5 μM diclofenac, 50 μM mephenytoin, 80 μM bupropion, and 5 μM dextromethorphan were used as probe substrates of CYP1A2, CYP3A4, CYP2C9, CYP2C19, CYP2B6, and CYP2D6, respectively. The incubation times were 20 min for […], CYP2D6, CYP2C9, CYP2B6, and CYP2C8; 40 min for CYP2C19; and 10 min for CYP 3A4. Following incubations, the reactions were terminated with acetonitrile containing internal standard. The samples were centrifuged and the supernatants were analyzed for the formation of metabolites (1-hydroxymidazolam (CYP3A4), 4-hydroxydiclofenac (CYP2C9), 4-hydroxymephenytoin (CYP2C19) and dextrorphan (CYP2D6), hydroxybupropion (CYP2B6), acetaminophen (CYP1A2), desethylamodiaquine (CYP2C8)) by LC/MS/MS.

[2] = biological target: CYP2C19 (Homo sapiens (Human), UniProt P33261); test: CYP inhibition in human liver microsomes; conditions: read-out: CYP-2C19; human liver microsomes; probe substrate mephenytoin
Chain of CYP2C19 (P33261 whole entry): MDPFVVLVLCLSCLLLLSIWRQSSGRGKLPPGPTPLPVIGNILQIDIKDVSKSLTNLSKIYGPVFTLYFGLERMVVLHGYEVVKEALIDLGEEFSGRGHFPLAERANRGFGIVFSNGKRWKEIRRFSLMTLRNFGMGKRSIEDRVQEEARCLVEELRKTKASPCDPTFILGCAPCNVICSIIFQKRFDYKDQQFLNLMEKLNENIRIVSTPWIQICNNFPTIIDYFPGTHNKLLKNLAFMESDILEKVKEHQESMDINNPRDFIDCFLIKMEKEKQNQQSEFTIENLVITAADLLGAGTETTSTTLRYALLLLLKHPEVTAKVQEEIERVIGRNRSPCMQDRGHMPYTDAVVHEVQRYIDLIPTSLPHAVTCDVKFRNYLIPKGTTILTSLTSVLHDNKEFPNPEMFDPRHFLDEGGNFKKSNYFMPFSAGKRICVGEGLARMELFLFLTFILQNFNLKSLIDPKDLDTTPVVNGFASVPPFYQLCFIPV
Protocol: as §1

[3] = biological target: CYP2D6 (Homo sapiens (Human), UniProt P10635); test: CYP inhibition in human liver microsomes; conditions: read-out: CYP-2D6; human liver microsomes; probe substrate dextromethorphan
Chain of CYP2D6 (P10635 whole entry): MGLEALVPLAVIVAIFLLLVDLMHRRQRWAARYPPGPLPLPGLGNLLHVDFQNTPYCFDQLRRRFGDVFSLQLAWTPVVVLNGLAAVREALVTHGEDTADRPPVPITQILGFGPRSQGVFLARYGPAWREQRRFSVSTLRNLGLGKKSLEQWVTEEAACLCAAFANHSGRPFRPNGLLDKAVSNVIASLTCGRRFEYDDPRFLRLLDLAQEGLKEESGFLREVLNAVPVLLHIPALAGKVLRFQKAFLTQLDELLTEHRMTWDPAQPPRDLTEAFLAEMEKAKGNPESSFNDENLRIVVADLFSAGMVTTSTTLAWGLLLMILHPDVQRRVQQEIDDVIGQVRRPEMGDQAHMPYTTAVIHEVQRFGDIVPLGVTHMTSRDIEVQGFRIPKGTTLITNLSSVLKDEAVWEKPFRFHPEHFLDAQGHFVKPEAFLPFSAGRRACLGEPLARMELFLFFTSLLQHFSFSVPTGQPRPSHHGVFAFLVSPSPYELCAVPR
Protocol: as §1

[4] = biological target: CYP2C8 (Homo sapiens (Human), UniProt P10632); test: CYP inhibition in human liver microsomes; conditions: read-out: CYP-2C8, metabolite desethylamodiaquine
Chain of CYP2C8 (P10632 whole entry): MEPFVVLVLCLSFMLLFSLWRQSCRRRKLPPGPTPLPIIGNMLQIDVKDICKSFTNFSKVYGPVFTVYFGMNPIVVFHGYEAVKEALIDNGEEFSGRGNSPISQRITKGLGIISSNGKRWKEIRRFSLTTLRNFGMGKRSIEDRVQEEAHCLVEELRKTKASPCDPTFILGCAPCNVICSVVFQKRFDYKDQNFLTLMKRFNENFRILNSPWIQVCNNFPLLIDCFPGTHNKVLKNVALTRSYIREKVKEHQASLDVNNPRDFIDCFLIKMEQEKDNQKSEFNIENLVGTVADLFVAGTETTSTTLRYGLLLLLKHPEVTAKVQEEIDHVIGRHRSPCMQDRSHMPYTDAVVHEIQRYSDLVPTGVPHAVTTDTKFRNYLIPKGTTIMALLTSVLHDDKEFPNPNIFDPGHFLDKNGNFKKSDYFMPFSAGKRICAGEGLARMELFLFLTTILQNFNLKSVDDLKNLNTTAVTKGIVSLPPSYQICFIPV
Protocol: as §1

[5] = biological target: CYP3A4 (Homo sapiens (Human), UniProt P08684); test: CYP inhibition in human liver microsomes; conditions: read-out: CYP-3A4; human liver microsomes; probe substrate midazolam
Chain of CYP3A4 (P08684 whole entry): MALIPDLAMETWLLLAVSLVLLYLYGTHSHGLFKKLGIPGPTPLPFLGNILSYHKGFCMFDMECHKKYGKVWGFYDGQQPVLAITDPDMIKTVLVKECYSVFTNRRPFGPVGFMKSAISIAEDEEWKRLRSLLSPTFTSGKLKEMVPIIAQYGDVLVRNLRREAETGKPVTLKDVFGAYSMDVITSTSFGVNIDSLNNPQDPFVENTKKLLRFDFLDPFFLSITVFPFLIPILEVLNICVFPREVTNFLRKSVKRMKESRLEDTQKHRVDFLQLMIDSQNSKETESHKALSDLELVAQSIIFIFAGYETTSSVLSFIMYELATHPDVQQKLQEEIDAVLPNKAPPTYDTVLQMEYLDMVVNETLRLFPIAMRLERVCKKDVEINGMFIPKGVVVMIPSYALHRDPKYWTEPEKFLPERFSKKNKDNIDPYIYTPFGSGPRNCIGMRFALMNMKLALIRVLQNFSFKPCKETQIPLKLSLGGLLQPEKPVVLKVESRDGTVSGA
Protocol: as §1

[6] = biological target: CYP2C9 (Homo sapiens (Human), UniProt P11712); test: CYP inhibition in human liver microsomes; conditions: read-out: CYP-2C9; human liver microsomes; probe substrate diclofenac
Chain of CYP2C9 (P11712 whole entry): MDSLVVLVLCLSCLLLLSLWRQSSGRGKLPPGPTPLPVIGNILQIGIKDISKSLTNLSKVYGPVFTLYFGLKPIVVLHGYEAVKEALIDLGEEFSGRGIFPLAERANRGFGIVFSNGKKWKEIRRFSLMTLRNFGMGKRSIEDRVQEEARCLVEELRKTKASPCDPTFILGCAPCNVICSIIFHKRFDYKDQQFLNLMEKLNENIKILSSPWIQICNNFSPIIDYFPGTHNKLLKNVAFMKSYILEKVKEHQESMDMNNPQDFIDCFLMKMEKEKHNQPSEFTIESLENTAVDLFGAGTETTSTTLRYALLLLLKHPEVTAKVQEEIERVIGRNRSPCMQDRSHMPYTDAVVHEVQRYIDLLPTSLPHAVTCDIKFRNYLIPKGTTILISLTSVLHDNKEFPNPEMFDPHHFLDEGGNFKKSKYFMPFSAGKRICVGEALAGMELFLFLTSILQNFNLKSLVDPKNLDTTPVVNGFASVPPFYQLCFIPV
Protocol: as §1

[7] = in vivo; conditions: Balb/c, mouse, po, 10 mg/kg
[8] = mouse, in vivo, po, 10 mg/kg
[9] = tested on: ATF6; test: ERSE ATF6-luciferase reporter assay (thapsigargin-induced ER stress); assay type: cell-based, human; conditions: Homo sapiens, U2OS, thapsigargin-induced ER stress, U2-OS ATF6 luc reporter cells; for inhibition at 1 µM: 8 h, 8 hr
[10] = In vitro microsomal stability, rat liver microsomes; assay type: in vitro ADME; conditions: for half-life at […], 1 µM / half-life at 1 μM: rat, read-out: T1/2 @ rLM; for Rem. @ rLM (%): remaining fraction after 30 min, 1 μM compound, 0.5 mg/mL rat liver microsomes, 1 mM NADPH
Protocol: (§2) Compounds were incubated at a final concentration of 1 μM with 0.5 mg/mL human liver microsomes (hLM) (#HMMCPL; Thermo), mouse liver microsomes (mLM) (#MSMCPL; Thermo) or rat liver microsomes (rLM) (#RTMCPL; Thermo) and 1 mM reduced dihydronicotinamide-adenine dinucleotide phosphate (NADPH) (#N1630; Sigma) in 100 mM phosphate buffer (pH 7.4) at 37° C. The reactions were terminated at 0, 5, 15 and 30 min by the addition of cold acetonitrile containing 50 ng/mL propranolol as an internal standard. […] Verapamil hydrochloride (#V4369 Aldrich) was used as a positive control in all studies.

[11] = In vitro microsomal stability, mouse liver microsomes; assay type: in vitro ADME; conditions: for microsomal CLint at 1 μM / microsomal CLint at […], 1 µM: intrinsic clearance, read-out: Clint @ mLM; for Rem. @ mLM (%): remaining fraction after 30 min, 1 μM compound, 0.5 mg/mL mouse liver microsomes, 1 mM NADPH
Protocol: as §2

[12] = In vitro microsomal stability, human liver microsomes; assay type: in vitro ADME; conditions: for half-life at 1 μM: human, read-out: T1/2 @ hLM; for half-life at 1 μM / microsomal CLint at 1 μM / microsomal CLint at […], 1 µM: human liver microsomes, pH 7.4; for microsomal CLint at 1 μM / microsomal CLint at […], 1 µM: intrinsic clearance, read-out: Clint @ hLM; for Rem. @ hLM (%): remaining fraction after 30 min, 1 μM compound, 0.5 mg/mL human liver microsomes, 1 mM NADPH
Protocol: as §2

[13] = Kinetic solubility (nephelometry); assay type: physicochemical; conditions: aqueous buffer, kinetic from dmso stock; PBS pH 7.4, 1% DMSO, 1 hour at 37° C., light scattering at 625 nm
Protocol: Concentration (μM) was then calculated by segmental regression. Amiodarone (#A8423 Aldrich) was used as positive control.

[14] = read-out: Inh. ATF6-Luc @ 1 μM [%], 1 μM test compound
[15] = read-out: IC50 ATF6-Luc reporter [μM], dose-response 30 μM to 1 nM
[16] = pH 7.4, intrinsic clearance, rat liver microsomes, read-out: Clint @ rLM
[17] = mouse, mouse liver microsomes, pH 7.4, read-out: T1/2 @ mLM
[18] = 1 μM test compound, read-out: Inh. ATF6-Luc @ 1 μM [%]
[19] = dose-response 30 μM to 1 nM, read-out: IC50 ATF6-Luc reporter

Chain of CYP2B6 (P20813 whole entry, canonical isoform): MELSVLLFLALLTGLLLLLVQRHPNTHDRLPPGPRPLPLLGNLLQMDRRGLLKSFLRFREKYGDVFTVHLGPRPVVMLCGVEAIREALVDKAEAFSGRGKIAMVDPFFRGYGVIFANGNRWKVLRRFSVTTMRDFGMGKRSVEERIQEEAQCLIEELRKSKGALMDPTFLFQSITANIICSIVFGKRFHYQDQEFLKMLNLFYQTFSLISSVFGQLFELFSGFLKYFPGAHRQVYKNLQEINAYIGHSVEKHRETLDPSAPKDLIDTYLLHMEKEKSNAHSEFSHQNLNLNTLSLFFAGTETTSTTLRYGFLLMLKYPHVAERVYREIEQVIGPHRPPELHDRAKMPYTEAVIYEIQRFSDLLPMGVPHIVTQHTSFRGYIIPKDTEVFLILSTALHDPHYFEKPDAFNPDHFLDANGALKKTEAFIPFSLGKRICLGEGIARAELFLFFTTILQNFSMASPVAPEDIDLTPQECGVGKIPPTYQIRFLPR

| SMILES | IC50 [9, 15] [µM] | microsomal CLint at […], 1 µM [10, 16] [µL/min/mg] | Rem. @ rLM (%) [10] [%] | half-life at 1 μM [11, 17] [min] | Rem. @ mLM (%) [11] [%] | half-life at 1 μM [12] [min] | Rem. @ hLM (%) [12] [%] | half-life at 1 μM ([10]; rat liver microsomes, pH 7.4) [min] | IC50 [9, 19] [µM] | solubility kinetic at 1 h [13] [µM] | microsomal CLint at […], 1 µM ([11]; pH 7.4, mouse liver microsomes) [µL/min/mg] | microsomal CLint at […], 1 µM [12] [µL/min/mg] | inhibition at 1 µM [9, 14] [%] | inhibition at 1 µM [9, 18] [%] | further results |
| --- | --- | --- | --- | --- | --- | --- | --- | --- | --- | --- | --- | --- | --- | --- | --- |
| C[C@H](c1ccc(C(F)(F)F)cc1C(F)(F)F)n1cc(NC(=O)c2cc(-c3cnccn3)on2)cn1 [Compound 131, (R)—N-(1-(1-(2,4-bis(trifluoromethyl)phenyl)ethyl)-1H-pyrazol-4-yl)-5-(pyrazin-2-yl)isoxazole-3-carboxamide] | < 1 |  |  |  |  |  |  |  |  |  |  |  | > 50 |  | IC50 [1]: 44.5 µM; IC50 [2]: 16.4 µM; IC50 [3]: > 50 µM; IC50 [4]: 43.3 µM; IC50 [5]: > 50 µM; IC50 [6]: > 50 µM; AUC(0-inf) [7]: 107 µg·h/mL; AUC(0-t) [7]: 98.7 µg·h/mL; Cmax [7]: 7030 ng/mL; Tmax [7]: 360 min; half-life [7]: 370 min; AUCExtr [%] ([8]; Balb/c): 7.75%; F [%] ([8]; Balb/c): 85.9%; Vz ([8]; Balb/c): 0.831 L/kg; Last time point for AUClast [8]: 24 h |
| O=C(Nc1cnn(Cc2ccc(C(F)(F)F)cc2C(F)(F)F)c1)c1cc(-c2ncccn2)on1 [Compound 129, N-(1-(2,4-bis(trifluoromethyl)benzyl)-1H-pyrazol-4-yl)-5-(pyrimidin-2-yl)isoxazole-3-carboxamide] | < 1 | 12 | 84.5 | 62.6 | 67.9 | 63.2 | 68.0 |  |  |  |  |  | > 50 |  | IC50 [1]: > 50 µM; IC50 [2]: > 50 µM; IC50 [3]: > 50 µM; IC50 [4]: > 50 µM; IC50 [5]: > 50 µM; IC50 [6]: > 50 µM; half-life at […], 1 µM ([10]; rat liver microsomes, pH 7.4): 114 min; microsomal CLint at 1 μM ([11]; pH 7.4, mouse liver microsomes): 22 µL/min/mg; microsomal CLint at 1 μM [12]: 22 µL/min/mg |
| C[C@H](c1ccc(F)cc1C(F)(F)F)n1cc(NC(=O)c2cc(-c3ccccn3)on2)cn1 [Compound 110, (R)—N-(1-(1-(4-fluoro-2-(trifluoromethyl)phenyl)ethyl)-1H-pyrazol-4-yl)-5-(pyridin-2-yl)isoxazole-3-carboxamide] |  | 28.7 | 60.99 | 14.2 | 20.03 | 27 | 39.72 | 48.3 | 1 to 10 | 4.68 (≈ 2.08 µg/mL) | 97.7 | 51.3 |  | 25 to 50 |  |
| O=C(Nc1cnn(Cc2ccc(C(F)(F)F)cc2C(F)(F)F)c1)c1cc(-c2cccs2)on1 [Compound 14, N-(1-(2,4-bis(trifluoromethyl)benzyl)-1H-pyrazol-4-yl)-5-(thiophen-2-yl)isoxazole-3-carboxamide] |  | 314 | 0.85 | 7.4 | 5.62 | 32.1 | 50.1 |  | < 1 | 35.2 (≈ 17.1 µg/mL) | 187 | 43 |  | 25 to 50 | half-life at […], 1 µM ([10]; rat liver microsomes, pH 7.4): 4.4 min |

Continued, in another order:

| IC50 [9, 15] [µM] | microsomal CLint at […], 1 µM [10, 16] [µL/min/mg] | Rem. @ rLM (%) [10] [%] | half-life at 1 μM [11, 17] [min] | Rem. @ mLM (%) [11] [%] | half-life at 1 μM [12] [min] | Rem. @ hLM (%) [12] [%] | half-life at 1 μM ([10]; rat liver microsomes, pH 7.4) [min] | IC50 [9, 19] [µM] | solubility kinetic at 1 h [13] [µM] | microsomal CLint at […], 1 µM ([11]; pH 7.4, mouse liver microsomes) [µL/min/mg] | microsomal CLint at […], 1 µM [12] [µL/min/mg] | SMILES | inhibition at 1 µM [9, 14] [%] | inhibition at 1 µM [9, 18] [%] | further results |
| --- | --- | --- | --- | --- | --- | --- | --- | --- | --- | --- | --- | --- | --- | --- | --- |
|  | 28.2 | 60.62 | 36.7 | 51.17 | 36 | 52.49 | 49.1 | < 1 | 2.34 (≈ 1.16 µg/mL) | 37.7 | 38.5 | C[C@H](c1ccc(C(F)(F)F)cc1C(F)(F)F)n1cc(NC(=O)c2cc(-c3ncccn3)on2)cn1 [Compound 101, (R)—N-(1-(1-(2,4-bis(trifluoromethyl)phenyl)ethyl)-1H-pyrazol-4-yl)-5-(pyrimidin-2-yl)isoxazole-3-carboxamide] |  | > 50 |  |
|  |  | 51.8 | 35.1 | 54.8 | 67.7 | 71.4 | 32.4 | < 1 | 2.7 (≈ 1.38 µg/mL) |  |  | CCC(c1ccc(C(F)(F)F)cc1C(F)(F)F)n1cc(NC(=O)c2cc(-c3ccccn3)on2)cn1 (stereo not shown) [Compound 1, N-(1-(1-(2,4-bis(trifluoromethyl)phenyl)propyl)-1H-pyrazol-4-yl)-5-(pyridin-2-yl)isoxazole-3-carboxamide] |  | 25 to 50 | microsomal CLint at 1 μM [10, 16]: 42.7 µL/min/mg; microsomal CLint at 1 μM ([11]; pH 7.4, mouse liver microsomes): 39.5 µL/min/mg; microsomal CLint at 1 μM [12]: 20.5 µL/min/mg |
| < 1 | 33.4 | 51.4 |  | 34.3 | 38.2 | 53.3 | 41.5 |  | 4.68 (≈ 2.38 µg/mL) | 72.6 | 36.2 | Cc1nn([C@@H](C)c2ccc(C(F)(F)F)cc2C(F)(F)F)cc1NC(=O)c1cc(-c2ccccn2)on1 [Compound 100, (S)—N-(1-(1-(2,4-bis(trifluoromethyl)phenyl)ethyl)-3-methyl-1H-pyrazol-4-yl)-5-(pyridin-2-yl)isoxazole-3-carboxamide] | > 50 |  | half-life at […], 1 µM [11, 17]: 19.1 min |
